Assay results: ChEMBL document CHEMBL2331268, “The interaction of imidazole-, imidazolium-, and tetrazolium-containing compounds with DNA” (Bioorg Med Chem Lett, 2013)
Calls of active or inactive are those of the source. The calls are words filed in the database; no cut-off is given here.

Tested on: Salmonidae
Assay: Displacement of SYBR green I from salmon testes DNA assessed as compound treated with SYBR green I followed by DNA added relative to control

For `C[n+]1ccn(CCCCCCCCCCCCCCCCn2cc[n+](C)c2)c1`, the Activity was “Active”.
With `c1cn(CCCCCCCCCCCCCCCCCCn2ccnc2)cn1` the Activity was “Active”.

Target: not listed separately
Assay: Displacement of SYBR green I from salmon testes DNA assessed as compound treated with DNA followed by SYBR green I added relative to control
Design: species or system Salmonidae

Point of comparison: `c1cn(CCCCCCCCCCCCCn2ccnc2)cn1`, IC50 186 µM. Against it:
- C[n+]1ccn(CCCCCCCCn2cc[n+](C)c2)c1 — higher, > 2500 µM
- CCC[n+]1ccn(CCCCCCCCCCCCn2cc[n+](CCC)c2)c1 — 1.7-fold lower, 109 µM
- O=[N+]([O-])c1ccc(Cn2cc[n+](Cc3ccc([N+](=O)[O-])cc3)c2)cc1 — 620-fold lower, 0.3 µM
- CC[n+]1ccn(CCCCCCCCCCCCn2cc[n+](CC)c2)c1 — higher, > 2500 µM
- Brc1cccc(Cn2cc[n+](Cc3cccc(Br)c3)c2)c1 — higher, > 2500 µM
- C[n+]1ccn(CCCCCCCCCCCCCCCCn2cc[n+](C)c2)c1 — 6.2-fold lower, 30 µM
- c1cn(CCCCCCCCn2ccnc2)cn1 — higher, > 2500 µM
- C[n+]1ccn(CCCCCCCCCCCCCCCn2cc[n+](C)c2)c1 — higher, > 2500 µM
- C[n+]1ccn(CCCCCCCCCCCCCCCCCCn2cc[n+](C)c2)c1 — 25-fold lower, 7.4 µM
- c1ccc(-c2nn(-c3ccccc3)[n+](-c3ccccc3)n2)cc1 [TETRAZOLIUM RED] — higher, > 2500 µM
- c1cn(CCCCn2ccnc2)cn1 — higher, > 2500 µM
- c1cn(-c2ccc(-n3ccnc3)cc2)cn1 — higher, > 2500 µM
- c1cn(CCCCCCCCCCCCn2ccnc2)cn1 — higher, > 2500 µM
- Ic1ccc(Cn2cc[n+](Cc3ccc(I)cc3)c2)cc1 — higher, > 2500 µM
- C[n+]1ccn(-c2ccc(-n3cc[n+](C)c3)cc2)c1 — higher, > 2500 µM
- c1cn(CCCCCCCCCCCCCCCCn2ccnc2)cn1 — 3.6-fold lower, 52 µM
- c1cn(CCCCCCCCCCCCCCCn2ccnc2)cn1 — higher, > 2500 µM
- Clc1ccccc1Cn1cc[n+](Cc2ccccc2Cl)c1 — higher, > 2500 µM
- COc1cc(-c2ccc(-[n+]3nc(-c4ccccc4)nn3-c3ccc([N+](=O)[O-])cc3)c(OC)c2)ccc1-[n+]1nc(-c2ccccc2)nn1-c1ccc([N+](=O)[O-])cc1 [NITROBLUE TETRAZOLIUM CHLORIDE] — 1.9-fold higher, 360 µM
- C[n+]1ccn(-c2ccc(-c3ccc(-n4cc[n+](C)c4)cc3)cc2)c1 — 2.3-fold higher, 423 µM
- O=[N+]([O-])c1ccc(-n2nc(-c3ccccc3)n[n+]2-c2ccc(I)cc2)cc1 [IODONITROTETRAZOLIUM CHLORIDE] — higher, > 2500 µM
- COc1cc(-c2ccc(-n3nc(-c4ccc([N+](=O)[O-])cc4)n[n+]3-c3ccc([N+](=O)[O-])cc3)c(OC)c2)ccc1-n1nc(-c2ccc([N+](=O)[O-])cc2)n[n+]1-c1ccc([N+](=O)[O-])cc1 — 5.5-fold lower, 34 µM
- c1cn(Cc2ccc(-c3ccc(Cn4ccnc4)cc3)cc2)cn1 — higher, > 2500 µM
- c1cn(CCCCCCCCCCCCCCn2ccnc2)cn1 — higher, > 2500 µM
- c1ccc2cc(Cn3cc[n+](Cc4ccc5ccccc5c4)c3)ccc2c1 — higher, > 2500 µM
- c1cn(CCCCCCCCCCCCCCCCCCCCn2ccnc2)cn1 — higher, > 2500 µM
- C[n+]1ccn(CCCCCCCCCCCn2cc[n+](C)c2)c1 — higher, > 2500 µM
- c1ccc(-c2nn(-c3ccccc3)[n+](-c3ccc(-c4ccc(-[n+]5nc(-c6ccccc6)nn5-c5ccccc5)cc4)cc3)n2)cc1 [NEOTETRAZOLIUM CHLORIDE] — 2.8-fold lower, 66 µM
- C[n+]1ccn(Cc2ccc(-c3ccc(Cn4cc[n+](C)c4)cc3)cc2)c1 — higher, > 2500 µM
- C[n+]1ccn(CCCCCCn2cc[n+](C)c2)c1 — higher, > 2500 µM
- Brc1ccc(C[n+]2ccn(Cc3ccccc3)c2)cc1 — higher, > 2500 µM
- Clc1ccc(Cn2cc[n+](Cc3ccc(Cl)cc3)c2)cc1 — higher, > 2500 µM
- COc1cc(-c2ccc(-n3nc(-c4ccccc4)n[n+]3-c3ccccc3)c(OC)c2)ccc1-n1nc(-c2ccccc2)n[n+]1-c1ccccc1 [TETRAZOLIUM BLUE CHLORIDE] — higher, > 2500 µM
- O=[N+]([O-])c1ccc(C[n+]2ccn(-c3ccc(-c4ccc(-n5cc[n+](Cc6ccc([N+](=O)[O-])cc6)c5)cc4)cc3)c2)cc1 — 460-fold lower, 0.4 µM
- C[n+]1ccn(CCCCCCCCCCCCn2cc[n+](C)c2)c1 — higher, > 2500 µM
- C[n+]1ccn(CCCCCCCCCCn2cc[n+](C)c2)c1 — higher, > 2500 µM
- c1ccc(-c2nn(-c3ccccc3)[n+](-c3cccc4ccccc34)n2)cc1 [TETRAZOLIUM VIOLET] — higher, > 2500 µM
- c1cn(CCCCCCCCCCCn2ccnc2)cn1 — higher, > 2500 µM
- C[n+]1ccn(CCCCn2cc[n+](C)c2)c1 — higher, > 2500 µM
- C[n+]1ccn(CCCCCCCCCCCCCCn2cc[n+](C)c2)c1 — 6.5-fold higher, 1210 µM
- Brc1ccc(Cn2cc[n+](Cc3ccc(Br)cc3)c2)cc1 — higher, > 2500 µM
- c1cn(CCCCCCCCCCCCCCCCCCn2ccnc2)cn1 — 3.2-fold lower, 58 µM
- C[n+]1ccn(CCCOc2ccc(OCCCn3cc[n+](C)c3)cc2)c1 — higher, > 2500 µM
- c1ccc(C[n+]2ccn(-c3ccc(-c4ccc(-n5cc[n+](Cc6ccccc6)c5)cc4)cc3)c2)cc1 — 2-fold higher, 370 µM
- c1cn(-c2ccc(-c3ccc(-n4ccnc4)cc3)cc2)cn1 — higher, > 2500 µM
- C[n+]1ccn(CCCCCCCCCCCCCCCCCCCCn2cc[n+](C)c2)c1 — 23-fold lower, 8 µM
- c1cn(CCCCCCn2ccnc2)cn1 — higher, > 2500 µM
- C[n+]1ccn(CCCCCCCCCCCCCn2cc[n+](C)c2)c1 — 7.4-fold lower, 25.2 µM
- c1cn(CCCCCCCCCCn2ccnc2)cn1 — higher, > 2500 µM

Tested on: Salmonidae
Assay: Displacement of SYBR green I from salmon testes DNA assessed as SYBR green I treated with DNA followed by compound added relative to control

With `C[n+]1ccn(CCCCCCCCCCCCCCCCn2cc[n+](C)c2)c1` the Activity was “Active”.
For `C[n+]1ccn(CCCCCCCCCCCCCCCn2cc[n+](C)c2)c1`, the Activity was “Active”.
In the case of `c1cn(CCCCCCCCCCCCCCCCn2ccnc2)cn1`, the Activity is reported as “Active”.
